Laboratory results taken from ChEMBL document CHEMBL1201862, “PubChem BioAssay data set” (2004).
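Assay format: 96-well plates, 48-hour exposure. GI50 is the concentration that inhibits growth by half.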 Activity calls are given as the source filed them. Cut-off read from the data, not from the text of the source: active = GI50 up to about 1.1 µM and inactive = higher.

Columns and labels:
Test in all cases: growth of human tumour cells (NCI), 48 h
[1] = test system: 786-0
[2] = test system: A549
[3] = test system: ACHN
[4] = test system: CAKI-1
[5] = test system: CCRF-CEM
[6] = test system: COLO 205
[7] = test system: DLD-1
[8] = test system: DMS-114
[9] = test system: EKVX
[10] = test system: HCC 2998
[11] = test system: HCT-15
[12] = test system: HL-60
[13] = test system: HOP-62
[14] = test system: HOP-92
[15] = test system: IGROV-1
[16] = test system: K562
[17] = test system: KM-20L2
[18] = test system: KM12
[19] = test system: LXFL 529
[20] = test system: M14
[21] = test system: M19-MEL
[22] = test system: MOLT-4
[23] = test system: Malme-3M
[24] = test system: NCI-H23
[25] = test system: NCI-H460
[26] = test system: NCI-H522
[27] = test system: OVCAR-3
[28] = test system: OVCAR-4
[29] = test system: OVCAR-5
[30] = test system: OVCAR-8
[31] = test system: RPMI-8226
[32] = test system: RXF 393
[33] = test system: RXF 631
[34] = test system: SF-268
[35] = test system: SF-295
[36] = test system: SK-MEL-28
[37] = test system: SK-MEL-2
[38] = test system: SK-MEL-5
[39] = test system: SK-OV-3
[40] = test system: SN12C
[41] = test system: SNB-19
[42] = test system: SNB-75
[43] = test system: SNB-78
[44] = test system: SW-620
[45] = test system: TK-10
[46] = test system: UACC-257
[47] = test system: UACC-62
[48] = test system: UO-31
[49] = test system: XF498
[50] = test system: A498
[51] = test system: DMS-273
[52] = test system: HCT-116
[53] = test system: HOP-18
[54] = test system: HT-29
[55] = test system: LOX IMVI
[56] = test system: NCI-H226
[57] = test system: SF-539
[58] = test system: SR
[59] = test system: U-251
[60] = test system: BT-549
[61] = test system: DU-145
[62] = test system: Hs-578T
[63] = test system: MCF7
[64] = test system: MDA-MB-231
[65] = test system: MDA-MB-435
[66] = test system: NCI/ADR-RES
[67] = test system: PC-3
[68] = test system: T47D

O=C(O)c1cc(=O)c2c([nH]c3ccccc32)s1
GI50 [1]: > 100 µM (inactive)
GI50 [2]: > 100 µM (inactive)
GI50 [3]: > 100 µM (inactive)
GI50 [4]: > 100 µM (inactive)
GI50 [5]: > 100 µM (inactive)
GI50 [6]: > 100 µM (inactive)
GI50 [7]: > 100 µM (inactive)
GI50 [8]: > 100 µM (inactive)
GI50 [9]: > 100 µM (inactive)
GI50 [10]: > 100 µM (inactive)
GI50 [11]: > 100 µM
GI50 [12]: > 100 µM (inactive)
GI50 [13]: > 100 µM (inactive)
GI50 [14]: > 100 µM (inactive)
GI50 [15]: > 100 µM (inactive)
GI50 [16]: > 100 µM (inactive)
GI50 [17]: > 100 µM (inactive)
GI50 [18]: > 100 µM (inactive)
GI50 [19]: > 100 µM (inactive)
GI50 [20]: > 100 µM (inactive)
GI50 [21]: > 100 µM (inactive)
GI50 [22]: > 100 µM (inactive)
GI50 [23]: > 100 µM (inactive)
GI50 [24]: > 100 µM (inactive)
GI50 [25]: > 100 µM (inactive)
GI50 [26]: > 100 µM (inactive)
GI50 [27]: > 100 µM (inactive)
GI50 [28]: > 100 µM (inactive)
GI50 [29]: > 100 µM (inactive)
GI50 [30]: > 100 µM (inactive)
GI50 [31]: > 100 µM (inactive)
GI50 [32]: > 100 µM (inactive)
GI50 [33]: > 100 µM (inactive)
GI50 [34]: > 100 µM (inactive)
GI50 [35]: > 100 µM (inactive)
GI50 [36]: > 100 µM (inactive)
GI50 [37]: > 100 µM (inactive)
GI50 [38]: > 100 µM (inactive)
GI50 [39]: > 100 µM (inactive)
GI50 [40]: > 100 µM (inactive)
GI50 [41]: > 100 µM (inactive)
GI50 [42]: 56.8 µM (inactive)
GI50 [43]: > 100 µM (inactive)
GI50 [44]: > 100 µM (inactive)
GI50 [45]: > 100 µM (inactive)
GI50 [46]: > 100 µM (inactive)
GI50 [47]: > 100 µM (inactive)
GI50 [48]: > 100 µM (inactive)
GI50 [49]: > 100 µM (inactive)

Nc1nc2ncn(CC(O)COC(=O)c3ccccc3)c2c(=O)[nH]1 (configuration not stated)
GI50 [1]: > 100 µM (inactive)
GI50 [50]: > 100 µM (inactive)
GI50 [2]: > 100 µM (inactive)
GI50 [3]: > 100 µM (inactive)
GI50 [4]: > 100 µM (inactive)
GI50 [5]: > 100 µM (inactive)
GI50 [6]: > 100 µM (inactive)
GI50 [7]: > 100 µM (inactive)
GI50 [8]: > 100 µM (inactive)
GI50 [51]: > 100 µM (inactive)
GI50 [9]: > 100 µM (inactive)
GI50 [52]: > 100 µM (inactive)
GI50 [11]: > 100 µM
GI50 [12]: > 100 µM (inactive)
GI50 [53]: > 100 µM (inactive)
GI50 [13]: > 100 µM (inactive)
GI50 [14]: > 100 µM (inactive)
GI50 [54]: > 100 µM (inactive)
GI50 [15]: > 100 µM (inactive)
GI50 [16]: > 100 µM (inactive)
GI50 [17]: > 100 µM (inactive)
GI50 [18]: > 100 µM (inactive)
GI50 [55]: > 100 µM (inactive)
GI50 [19]: > 100 µM (inactive)
GI50 [20]: > 100 µM (inactive)
GI50 [21]: > 100 µM (inactive)
GI50 [23]: > 100 µM (inactive)
GI50 [56]: > 100 µM (inactive)
GI50 [24]: > 100 µM (inactive)
GI50 [25]: > 100 µM (inactive)
GI50 [26]: > 100 µM (inactive)
GI50 [27]: > 100 µM (inactive)
GI50 [28]: > 100 µM (inactive)
GI50 [29]: > 100 µM (inactive)
GI50 [30]: > 100 µM (inactive)
GI50 [31]: > 100 µM (inactive)
GI50 [32]: > 100 µM (inactive)
GI50 [33]: > 100 µM (inactive)
GI50 [34]: > 100 µM (inactive)
GI50 [35]: > 100 µM (inactive)
GI50 [57]: > 100 µM (inactive)
GI50 [36]: > 100 µM (inactive)
GI50 [37]: > 100 µM (inactive)
GI50 [38]: > 100 µM (inactive)
GI50 [39]: > 100 µM (inactive)
GI50 [40]: > 100 µM (inactive)
GI50 [42]: > 100 µM (inactive)
GI50 [43]: 48.3 µM (inactive)
GI50 [58]: > 100 µM (inactive)
GI50 [44]: > 100 µM (inactive)
GI50 [45]: > 100 µM (inactive)
GI50 [59]: > 100 µM (inactive)
GI50 [46]: > 100 µM (inactive)
GI50 [47]: > 100 µM (inactive)
GI50 [48]: > 100 µM (inactive)
GI50 [49]: > 100 µM (inactive)

c1ccc2c(NCCCCCCCCNc3c4ccccc4nc4ccccc34)c3ccccc3nc2c1
GI50 [1]: 0.106 µM (active)
GI50 [50]: 1.26 µM (inactive)
GI50 [2]: 0.0948 µM (active)
GI50 [3]: 0.0703 µM (active)
GI50 [60]: 1.16 µM (inactive)
GI50 [4]: 0.546 µM (active)
GI50 [5]: < 0.0278 µM (active)
GI50 [6]: 0.113 µM (active)
GI50 [7]: 0.143 µM (active)
GI50 [8]: 1.01 µM (active)
GI50 [51]: 0.043 µM (active)
GI50 [61]: 0.0838 µM (active)
GI50 [9]: 0.323 µM (active)
GI50 [10]: 0.0723 µM (active)
GI50 [52]: 0.0392 µM (active)
GI50 [11]: 0.528 µM
GI50 [12]: 0.125 µM (active)
GI50 [53]: 1.76 µM (inactive)
GI50 [13]: 0.224 µM (active)
GI50 [14]: 1.48 µM (inactive)
GI50 [54]: < 0.0281 µM (active)
GI50 [62]: 0.478 µM (active)
GI50 [15]: 0.0927 µM (active)
GI50 [16]: 0.0469 µM (active)
GI50 [17]: 0.354 µM (active)
GI50 [18]: 0.187 µM (active)
GI50 [55]: 0.181 µM (active)
GI50 [19]: 0.213 µM (active)
GI50 [20]: 0.975 µM (active)
GI50 [21]: 1.08 µM (active)
GI50 [63]: 0.0578 µM (active)
GI50 [64]: 0.0482 µM (active)
GI50 [65]: 1.04 µM (active)
GI50 [22]: 0.0419 µM (active)
GI50 [23]: 1.14 µM (inactive)
GI50 [56]: 1.35 µM (inactive)
GI50 [24]: 0.257 µM (active)
GI50 [25]: 0.0428 µM (active)
GI50 [26]: < 0.0247 µM (active)
GI50 [66]: 4.15 µM (inactive)
GI50 [27]: 0.37 µM (active)
GI50 [28]: 0.887 µM (active)
GI50 [29]: 0.23 µM (active)
GI50 [30]: 0.27 µM (active)
GI50 [67]: 0.0548 µM (active)
GI50 [31]: 0.0828 µM (active)
GI50 [32]: 0.0782 µM (active)
GI50 [33]: 0.178 µM (active)
GI50 [34]: 0.63 µM (active)
GI50 [35]: 0.693 µM (active)
GI50 [57]: 0.233 µM (active)
GI50 [37]: 0.733 µM (active)
GI50 [38]: 1.39 µM (inactive)
GI50 [39]: 0.553 µM (active)
GI50 [40]: 0.356 µM (active)
GI50 [41]: 0.332 µM (active)
GI50 [42]: 1.19 µM (inactive)
GI50 [43]: 1.01 µM (active)
GI50 [58]: 0.024 µM (active)
GI50 [44]: 0.0506 µM (active)
GI50 [68]: 0.59 µM (active)
GI50 [45]: 1.38 µM (inactive)
GI50 [59]: 0.184 µM (active)
GI50 [46]: 1.37 µM (inactive)
GI50 [47]: 0.684 µM (active)
GI50 [48]: 1.35 µM (inactive)
GI50 [49]: 1.04 µM (active)
